# Columns and labels:
# Escherichia coli = test: MIC by agar dilution technique; type: cell-based; details: 37° C., 18 hours
# Method: (§1) The minimum inhibitory concentration (MIC) of aerocavin was determined by an agar dilution technique. The test organisms were prepared from frozen stocks and diluted to give a final level of 10^7 CFU/ml (CFU is colony forming units). Aerocavin was dissolved in the appropriate diluent at a concentration of 1,000 μg/ml. Two fold dilutions were made in Yeast Beef Broth (Difco), resulting in a range from 1,000 μg/ml to 0.5 μg/ml. A 1.5 ml sample of each dilution was placed into individual petri dishes to which 13.5 ml of K-10 agar* was added. The final drug concentration in the agar ranged from 100 μg/ml to 0.05 μg/ml. Organism growth control plates containing agar only were prepared and inoculated before and after the test plates. The organisms were applied to the surface of each plate with the Denley Multipoint Inoculator (which delivers approximately 0.001 ml of each organism) resulting in a final inoculum level of 10^4 CFU on the agar surface.
# (§2) The plates were incubated at 37° C. for 18 hours and the MIC's then determined. The MIC is the lowest concentration of compound inhibiting growth of the organism.
# (§3) Using the methodology described for the determination of the biological activity of aerocavin, the biological activity of aerocyanidin was determined.
# Pseudomonas aeruginosa = test: MIC by agar dilution technique; type: cell-based; details: 37° C., 18 hours
# Method: as §1, §2, §3
# Staphylococcus aureus = test: MIC by agar dilution technique; type: cell-based; details: 37° C., 18 hours
# Method: as §1, §2, §3
# [1] = test system: Acinetobacter calcoaceticus; test: MIC by agar dilution technique; type: cell-based; details: SC8333, SC No. 8333, 10^4 CFU, 37° C., 18 hours
# Method: as §1, with “surface. |*K-10 agar The plates were incubated at 37° C. for 18 hours and the MIC's then determined. The MIC is the lowest concentration of compound inhibiting growth of the organism.” for “surface.”
# [2] = test system: Staphylococcus epidermidis; test: MIC by agar dilution technique; type: cell-based; details: 37° C., 18 hours
# Method: as §1, with “surface. |*K-10 agar The plates were incubated at 37° C. for 18 hours and the MIC's then determined. The MIC is the lowest concentration of compound inhibiting growth of the organism.” for “surface.”
# gram positive organisms = test: activity against gram positive organisms; type: cell-based
# solubility = type: physicochemical
# Enterobacter cloacae = test: MIC by agar dilution technique; type: cell-based; details: SC8236, SC No. 8236, 10^4 CFU, 37° C., 18 hours
# Method: as §1, §2, §3
# Klebsiella aerogenes = test: MIC by agar dilution technique; type: cell-based; details: SC10440, SC No. 10440, 10^4 CFU, 37° C., 18 hours
# Method: as §1, §2, §3
# Klebsiella pneumoniae = test: MIC by agar dilution technique; type: cell-based; details: SC9527, SC No. 9527, 10^4 CFU, 37° C., 18 hours
# Method: as §1, §2, §3
# Micrococcus luteus = test: MIC by agar dilution technique; type: cell-based; details: SC2495, SC No. 2495, 10^4 CFU, 37° C., 18 hours
# Method: as §1, §2, §3
# Proteus mirabilis = test: MIC by agar dilution technique; type: cell-based; details: SC3855, SC No. 3855, 10^4 CFU, 37° C., 18 hours
# Method: as §1, §2, §3
# Salmonella typhosa = test: MIC by agar dilution technique; type: cell-based; details: Salmonella enterica, SC1195 / TYPHOSA, 18 h
# Method: as §1, §2, §3
# Shigella sonnei = test: MIC by agar dilution technique; type: cell-based; details: SC8449, SC No. 8449, 10^4 CFU, 37° C., 18 hours
# Method: as §1, §2, §3
# Streptococcus agalactiae = test: MIC by agar dilution technique; type: cell-based; details: SC9287, SC No. 9287, 10^4 CFU, 37° C., 18 hours
# Method: as §1, §2, §3
# Streptococcus faecalis = test: MIC by agar dilution technique; type: cell-based; details: Enterococcus faecalis, SC9011; SC No. 9011; 10^4 CFU, 37° C., 18 hours
# Method: as §1, §2, §3
# stability on storage = type: physicochemical; details: solid state, compared with ethyl acetate solution at 4° C.
structure (smiles),measurement,setting,value
"CCCCCCCCC[C@@H](O)C[C@H]1C[C@H](O)C/C(C)=C/C/C=C/C/C(CC(=O)O)=C\C(=O)O1 (relative stereo) [aerocavin, [3E,6E,9E,12α,14β(R*)]-12-hydroxy-14-(2-hydroxyundecyl)-10-methyl-2-oxooxacyclotetradeca-3,6,9-triene-4-acetic acid]",MIC,"Escherichia coli; SC8294, SC No. 8294, 10^4 CFU",100 µg/mL
same,MIC,"Escherichia coli; SC10857, SC No. 10857, 10^4 CFU",12.5 µg/mL
same,MIC,"Pseudomonas aeruginosa; SC9545, SC No. 9545, 10^4 CFU",25 µg/mL
same,MIC,"Staphylococcus aureus; SC1276, SC No. 1276, 10^4 CFU",6.3 µg/mL
same,MIC,"Staphylococcus aureus; SC2399, SC No. 2399, 10^4 CFU",6.3 µg/mL
same,MIC,"Staphylococcus aureus; SC9593, SC No. 9593 (Penicillin^R), 10^4 CFU",6.3 µg/mL
same,MIC,"Staphylococcus aureus; SC10016, SC No. 10016 (Tetracycline^R), 10^4 CFU",3.1 µg/mL
same,MIC,"Staphylococcus aureus; SC10820, SC No. 10820 (Erythromycin^R), 10^4 CFU",3.1 µg/mL
same,MIC,[1],12.5 µg/mL
same,MIC,"[2]; SC9052, SC No. 9052, 10^4 CFU",6.3 µg/mL
same,MIC,"[2]; SC10547, SC No. 10547 (Penicillin^R), 10^4 CFU",3.1 µg/mL
same,activity against gram positive organisms,gram positive organisms,has activity against gram positive organisms
same,solubility,solubility; in heptane,less soluble
same,solubility,"solubility; in methanol, acetone, ethyl acetate",substantially soluble
same,solubility,solubility; in water,insoluble
"[C-]#[N+][C@]1(C)O[C@@H]1[C@H](O)CCCCCCCCCC(=O)O (relative stereo) [aerocyanidin, [2α(R*),3α]-κ-hydroxy-3-isocyano-3-methyloxiraneundecanoic acid]",MIC,Enterobacter cloacae,50 µg/mL
same,MIC,"Escherichia coli; SC8294, SC No. 8294, 10^4 CFU",> 50 µg/mL
same,MIC,"Escherichia coli; SC10896, SC No. 10896, 10^4 CFU",25 µg/mL
same,MIC,"Escherichia coli; SC10909, SC No. 10909, 10^4 CFU",1.6 µg/mL
same,MIC,Klebsiella aerogenes,> 50 µg/mL
same,MIC,Klebsiella pneumoniae,> 50 µg/mL
same,MIC,Micrococcus luteus,0.4 µg/mL
same,MIC,Proteus mirabilis,1.6 µg/mL
same,MIC,"Pseudomonas aeruginosa; SC8329, SC No. 8329, 10^4 CFU",> 50 µg/mL
same,MIC,Salmonella typhosa,25 µg/mL
same,MIC,Shigella sonnei,25 µg/mL
same,MIC,"Staphylococcus aureus; SC1276, SC No. 1276, 10^4 CFU",< 0.05 µg/mL
same,MIC,"Staphylococcus aureus; SC2399, SC No. 2399, 10^4 CFU",< 0.05 µg/mL
same,MIC,"Staphylococcus aureus; SC2400, SC No. 2400, 10^4 CFU",< 0.05 µg/mL
same,MIC,Streptococcus agalactiae,< 0.05 µg/mL
same,MIC,Streptococcus faecalis,0.2 µg/mL
same,activity against gram positive organisms,gram positive organisms,has activity against gram positive organisms
same,stability,stability on storage,less stable in the solid state

# From US4745202A, “Aerocyanidin-antibiotic” (E. R. Squibb & Sons, Inc., priority 1987, dated 1988)
